Activity calls are given as the source filed them. The rule behind the calls is not given here.
Tested on: CCRIS mutagenicity, Ames/micronucleus/aberration tests
Assay: CCRIS mutagenicity studies
[1] = Test System: AMES SALMONELLA TYPHIMURIUM, Strain/Indicator: TA98, Metabolic Activation: NONE, Method: PREINCUBATION
[2] = Test System: AMES SALMONELLA TYPHIMURIUM, Strain/Indicator: TA98, Metabolic Activation: NONE, Method: STANDARD PLATE
[3] = Test System: AMES SALMONELLA TYPHIMURIUM, Strain/Indicator: TA98, Metabolic Activation: RAT, LIVER, S-9, AROCLOR 1254, Method: PREINCUBATION
[4] = Test System: AMES SALMONELLA TYPHIMURIUM, Strain/Indicator: TA98, Metabolic Activation: RAT, LIVER, S-9, AROCLOR 1254, Method: STANDARD PLATE
[5] = Test System: AMES SALMONELLA TYPHIMURIUM, Strain/Indicator: TA100, Metabolic Activation: NONE, Method: PREINCUBATION
[6] = Test System: AMES SALMONELLA TYPHIMURIUM, Strain/Indicator: TA100, Metabolic Activation: NONE, Method: STANDARD PLATE
[7] = Test System: AMES SALMONELLA TYPHIMURIUM, Strain/Indicator: TA100, Metabolic Activation: RAT, LIVER, S-9, AROCLOR 1254, Method: PREINCUBATION
[8] = Test System: AMES SALMONELLA TYPHIMURIUM, Strain/Indicator: TA100, Metabolic Activation: RAT, LIVER, S-9, AROCLOR 1254, Method: STANDARD PLATE
[9] = Test System: MOUSE LYMPHOMA, Strain/Indicator: L5178Y (TK+/TK-), Metabolic Activation: NONE, Method: SUSPENSION/PLATE
[10] = Test System: AMES SALMONELLA TYPHIMURIUM, Strain/Indicator: TA98, Metabolic Activation: HAMSTER, LIVER, S-9, AROCLOR 1254 (10%), Method: PREINCUBATION
[11] = Test System: AMES SALMONELLA TYPHIMURIUM, Strain/Indicator: TA98, Metabolic Activation: RAT, LIVER, S-9, AROCLOR 1254 (10%), Method: PREINCUBATION
[12] = Test System: AMES SALMONELLA TYPHIMURIUM, Strain/Indicator: TA100, Metabolic Activation: HAMSTER, LIVER, S-9, AROCLOR 1254 (10%), Method: PREINCUBATION
[13] = Test System: AMES SALMONELLA TYPHIMURIUM, Strain/Indicator: TA100, Metabolic Activation: RAT, LIVER, S-9, AROCLOR 1254 (10%), Method: PREINCUBATION
[14] = Test System: AMES SALMONELLA TYPHIMURIUM, Strain/Indicator: TA1535, Metabolic Activation: HAMSTER, LIVER, S-9, AROCLOR 1254 (10%), Method: PREINCUBATION
[15] = Test System: AMES SALMONELLA TYPHIMURIUM, Strain/Indicator: TA1535, Metabolic Activation: NONE, Method: PREINCUBATION
[16] = Test System: AMES SALMONELLA TYPHIMURIUM, Strain/Indicator: TA1535, Metabolic Activation: RAT, LIVER, S-9, AROCLOR 1254 (10%), Method: PREINCUBATION
[17] = Test System: AMES SALMONELLA TYPHIMURIUM, Strain/Indicator: TA1537, Metabolic Activation: HAMSTER, LIVER, S-9, AROCLOR 1254 (10%), Method: PREINCUBATION
[18] = Test System: AMES SALMONELLA TYPHIMURIUM, Strain/Indicator: TA1537, Metabolic Activation: NONE, Method: PREINCUBATION
[19] = Test System: AMES SALMONELLA TYPHIMURIUM, Strain/Indicator: TA1537, Metabolic Activation: RAT, LIVER, S-9, AROCLOR 1254 (10%), Method: PREINCUBATION

Structure (SMILES): Cc1c([N+](=O)[O-])c(C)c([N+](=O)[O-])c(C(C)(C)C)c1[N+](=O)[O-]
- mutagenic call [1]: inactive; negative
- mutagenic call [2]: inactive; negative
- mutagenic call [3]: inactive; negative
- mutagenic call [4]: inactive; negative
- mutagenic call [5]: inactive; negative
- mutagenic call [6]: inactive; negative
- mutagenic call [7]: inactive; negative
- mutagenic call [8]: inactive; negative
- mutagenic call [9]: inactive; negative
- mutagenic call (Test System: MOUSE LYMPHOMA, Strain/Indicator: L5178Y (TK+/TK-), Metabolic Activation: RAT, LIVER, S-9, AROCLOR 1242 AND 1254 (2:1), Method: SUSPENSION/PLATE): inactive; negative
- mutagenic call (Test System: UDS RAT HEPATOCYTES, Strain/Indicator: THY INCORP, Metabolic Activation: NONE): inactive; negative
- mutagenic call (Test System: UDS RAT HEPATOCYTES, Strain/Indicator: THY INCORP, Metabolic Activation: NONE, Method: IN VIVO-IN VITRO): inactive; negative

Structure (SMILES): ClCc1cc2cccc3ccc4cc5ccccc5c1c4c32
- mutagenic call [2]: active; positive
- mutagenic call [6]: active; positive

Structure (SMILES): COc1cc(/C=C/c2ccccc2)oc(=O)c1
- mutagenic call (Test System: Mouse lymphoma cells, Strain/Indicator: L5178Y ( tk+/tk-), Metabolic Activation: Human, Liver, S-9, Method: Suspension/plate): inactive; negative

Structure (SMILES): c1cnc2c(c1)ccc1cccnc12
- mutagenic call [10]: inactive; negative
- mutagenic call [1]: inactive; negative
- mutagenic call [11]: inactive; negative
- mutagenic call [12]: inactive; negative
- mutagenic call [5]: inactive; negative
- mutagenic call [13]: inactive; negative
- mutagenic call (Test System: AMES SALMONELLA TYPHIMURIUM, Strain/Indicator: TA100, Metabolic Activation: RAT, LIVER, S-9, PHENOBARBITAL AND 5,6-BENZOFLAVONE, Method: PREINCUBATION): inactive; negative
- mutagenic call [14]: inactive; negative
- mutagenic call [15]: inactive; negative
- mutagenic call [16]: inactive; negative
- mutagenic call [17]: inactive; negative
- mutagenic call [18]: inactive; negative
- mutagenic call [19]: inactive; negative
- mutagenic call [9]: active; positive. reevaluation of results: positive
- mutagenic call (Test System: MOUSE LYMPHOMA, Strain/Indicator: L5178Y (TK+/TK-), Metabolic Activation: RAT, LIVER, S-9, AROCLOR 1254, Method: SUSPENSION/PLATE): active; positive. reevaluation of results: positive

Structure (SMILES): C[C-](C)[N+](=O)[O-]
- mutagenic call [1]: active; positive
- mutagenic call [3]: active; positive
- mutagenic call [5]: active; positive
- mutagenic call [7]: active; positive
- mutagenic call (Test System: AMES SALMONELLA TYPHIMURIUM, Strain/Indicator: TA100, Metabolic Activation: RAT, LIVER, S-9, AROCLOR, Method: PREINCUBATION): active; positive
- mutagenic call (Test System: AMES SALMONELLA TYPHIMURIUM, Strain/Indicator: TA102, Metabolic Activation: NONE, Method: PREINCUBATION): active; positive
- mutagenic call (Test System: AMES SALMONELLA TYPHIMURIUM, Strain/Indicator: TA102, Metabolic Activation: RAT, LIVER, S-9, AROCLOR 1254, Method: PREINCUBATION): active; positive
- mutagenic call (Test System: AMES SALMONELLA TYPHIMURIUM, Strain/Indicator: TA102, Metabolic Activation: RAT, LIVER, S-9, AROCLOR, Method: PREINCUBATION): active; positive
- mutagenic call (Test System: UDS CHINESE HAMSTER V-79 CELLS, Metabolic Activation: NONE, Method: AUTORADIOGRAPHY): active; positive
- mutagenic call (Test System: UDS CHINESE HAMSTER V-79 CELLS, Strain/Indicator: V-79-MZ/CYTIDINE INCORPORATION, Metabolic Activation: NONE, Method: AUTORADIOGRAPHY): inactive; negative
- mutagenic call (Test System: UDS CHINESE HAMSTER V-79 CELLS, Strain/Indicator: V-79-RHST20/CYTIDINE INCORPORATION, Metabolic Activation: NONE, Method: AUTORADIOGRAPHY): inactive; negative
- mutagenic call (Test System: UDS CHINESE HAMSTER V-79 CELLS, Strain/Indicator: V-79-RHSTA/CYTIDINE INCORPORATION, Metabolic Activation: NONE, Method: AUTORADIOGRAPHY): inactive; negative
- mutagenic call (Test System: UDS CHINESE HAMSTER V-79 CELLS, Strain/Indicator: V-79-RPST-IV/CYTIDINE INCORPORATION, Metabolic Activation: NONE, Method: AUTORADIOGRAPHY): active; positive
- mutagenic call (Test System: UDS HUMAN HEPATOCYTES, Strain/Indicator: THY INCORP, Metabolic Activation: NONE, Method: AUTORADIOGRAPHY): active; positive
- mutagenic call (Test System: UDS MOUSE HEPATOCYTES, Strain/Indicator: THY INCORP, Metabolic Activation: NONE, Method: AUTORADIOGRAPHY): active; positive
- mutagenic call (Test System: UDS RAT HEPATOCYTES, Strain/Indicator: THY INCORP, Metabolic Activation: NONE, Method: AUTORADIOGRAPHY): active; positive

Structure (SMILES): CC(=O)N(O)c1ccc(Cl)c(Cl)c1
- mutagenic call (Test System: AMES SALMONELLA TYPHIMURIUM, Strain/Indicator: TA97, Metabolic Activation: NONE, Method: STANDARD PLATE): inactive; negative
- mutagenic call (Test System: AMES SALMONELLA TYPHIMURIUM, Strain/Indicator: TA97, Metabolic Activation: RAT, LIVER, S-9, AROCLOR 1254, Method: STANDARD PLATE): inactive; negative
- mutagenic call [2]: inactive; negative
- mutagenic call [4]: inactive; negative
- mutagenic call [6]: inactive; negative
- mutagenic call [8]: inactive; negative
- mutagenic call (Test System: AMES SALMONELLA TYPHIMURIUM, Strain/Indicator: TA104, Metabolic Activation: NONE, Method: STANDARD PLATE): inactive; negative
- mutagenic call (Test System: AMES SALMONELLA TYPHIMURIUM, Strain/Indicator: TA104, Metabolic Activation: RAT, LIVER, S-9, AROCLOR 1254, Method: STANDARD PLATE): inactive; negative

Structure (SMILES): CCCCCOC(=O)C=Cc1ccc([N+](=O)[O-])o1
- mutagenic call [1]: active; positive

Structure (SMILES): CC1(C(Cl)Cl)C2[C@@H](Cl)[C@H](Cl)C1(C(Cl)Cl)[C@@H](Cl)[C@@H]2Cl (stereo not given in full)
- mutagenic call [5]: inactive; negative

Structure (SMILES): NCCCNCCCN
- mutagenic call [10]: inactive; negative
- mutagenic call [1]: inactive; negative
- mutagenic call [11]: inactive; negative
- mutagenic call (Test System: AMES SALMONELLA TYPHIMURIUM, Strain/Indicator: TA98, Metabolic Activation: RAT, LIVER, S-9, PCB, Method: PREINCUBATION): inactive; negative
- mutagenic call [12]: inactive; negative
- mutagenic call [5]: inactive; negative
- mutagenic call [13]: inactive; negative
- mutagenic call (Test System: AMES SALMONELLA TYPHIMURIUM, Strain/Indicator: TA100, Metabolic Activation: RAT, LIVER, S-9, PCB, Method: PREINCUBATION): inactive; negative
- mutagenic call [14]: inactive; negative
- mutagenic call [15]: inactive; negative
- mutagenic call [16]: inactive; negative
- mutagenic call [17]: inactive; negative
- mutagenic call [18]: inactive; negative
- mutagenic call [19]: inactive; negative
